Results as given in PubChem BioAssay (NCI).
Several values for one entry are separate records, joined by “and”; a condition that tells them apart may be missing. Equal values may be shown once.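 All cell lines were grown in 96-well plates and treated with compound for 48 hours. Here, GI50 denotes the concentration required for 50% inhibition of growth. TGI marks complete inhibition of growth.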

Columns and labels:
Assay in all cases: growth of human tumour cells (NCI), 48 h
RXF 393 renal = tested on: RXF 393 renal
MALME-3M melanoma = tested on: MALME-3M melanoma
OVCAR-4 ovarian = tested on: OVCAR-4 ovarian
HOP-62 NSCLC = tested on: HOP-62 NSCLC
U251 CNS = tested on: U251 CNS
SK-OV-3 ovarian = tested on: SK-OV-3 ovarian
UACC-257 melanoma = tested on: UACC-257 melanoma
OVCAR-8 ovarian = tested on: OVCAR-8 ovarian
M14 melanoma = tested on: M14 melanoma
NCI/ADR-RES ovarian = tested on: NCI/ADR-RES ovarian
KM12 colon = tested on: KM12 colon
LOX IMVI melanoma = tested on: LOX IMVI melanoma
SNB-19 CNS = tested on: SNB-19 CNS
NCI-H460 lung = tested on: NCI-H460 lung
COLO 205 colon = tested on: COLO 205 colon
PC-3 prostate = tested on: PC-3 prostate
HCT-15 colon = tested on: HCT-15 colon
SK-MEL-28 melanoma = tested on: SK-MEL-28 melanoma
A549 NSCLC = tested on: A549 NSCLC
NCI-H23 lung = tested on: NCI-H23 lung
CAKI-1 renal = tested on: CAKI-1 renal
SR leukemia = tested on: SR leukemia
SK-MEL-5 melanoma = tested on: SK-MEL-5 melanoma
ACHN renal = tested on: ACHN renal
MOLT-4 leukemia = tested on: MOLT-4 leukemia
HCC-2998 colon = tested on: HCC-2998 colon
HOP-92 NSCLC = tested on: HOP-92 NSCLC
RPMI-8226 leukemia = tested on: RPMI-8226 leukemia
NCI-H522 lung = tested on: NCI-H522 lung
DU-145 prostate = tested on: DU-145 prostate
T-47D breast = tested on: T-47D breast
SF-539 CNS = tested on: SF-539 CNS
HL-60(TB) leukemia = tested on: HL-60(TB) leukemia
HCT-116 colon = tested on: HCT-116 colon
A498 renal = tested on: A498 renal
SF-295 CNS = tested on: SF-295 CNS
SK-MEL-2 melanoma = tested on: SK-MEL-2 melanoma
CCRF-CEM leukemia = tested on: CCRF-CEM leukemia
MDA-N = tested on: MDA-N
SNB-75 CNS = tested on: SNB-75 CNS
HS 578T breast = tested on: HS 578T breast
MCF7 breast = tested on: MCF7 breast
HT29 colon = tested on: HT29 colon
MDA-MB-435 = tested on: MDA-MB-435
786-0 renal = tested on: 786-0 renal
OVCAR-5 ovarian = tested on: OVCAR-5 ovarian
SN12C renal = tested on: SN12C renal
BT-549 breast = tested on: BT-549 breast
SW-620 colon = tested on: SW-620 colon
UO-31 renal = tested on: UO-31 renal
TK-10 renal = tested on: TK-10 renal
EKVX NSCLC = tested on: EKVX NSCLC
OVCAR-3 ovarian = tested on: OVCAR-3 ovarian
SF-268 CNS = tested on: SF-268 CNS
UACC-62 melanoma = tested on: UACC-62 melanoma
NCI-H226 lung = tested on: NCI-H226 lung
K-562 leukemia = tested on: K-562 leukemia
IGROV1 ovarian = tested on: IGROV1 ovarian

Nc1nc(Cl)c(N=Nc2ccc(Cl)cc2)c(NCC2(CO)CC(OCc3ccccc3)C2)n1 (centres undefined)
GI50 (RXF 393 renal): 5.17 µM and > 48.3 µM and 8.18 µM
TGI (RXF 393 renal): 19.7 µM and > 100 µM and 25.6 µM
GI50 (MALME-3M melanoma): 17.9 µM and 10.1 µM
TGI (MALME-3M melanoma): 33.3 µM
GI50 (OVCAR-4 ovarian): 2.25 µM and 15.9 µM and 3.65 µM
TGI (HOP-62 NSCLC): 49.4 µM and > 100 µM and 22.5 µM
TGI (U251 CNS): 28.5 µM and > 100 µM and 36 µM
TGI (SK-OV-3 ovarian): 69.9 µM and > 100 µM and 30 µM
GI50 (UACC-257 melanoma): 32.5 µM and > 95.4 µM and 15.6 µM
TGI (UACC-257 melanoma): > 100 µM and 46 µM
GI50 (OVCAR-8 ovarian): 3.69 µM and 16.1 µM and 4.39 µM
TGI (OVCAR-8 ovarian): 16.3 µM and > 100 µM and 23.9 µM
TGI (M14 melanoma): > 100 µM and 18.7 µM
GI50 (NCI/ADR-RES ovarian): 6.55 µM and 9.08 µM and 3.98 µM
TGI (NCI/ADR-RES ovarian): 77.8 µM and > 100 µM and 16.2 µM
GI50 (KM12 colon): 20 µM and 41.3 µM and 7.74 µM
TGI (KM12 colon): > 100 µM and 28 µM
GI50 (LOX IMVI melanoma): 2.04 µM and 18.1 µM and 2.72 µM
TGI (LOX IMVI melanoma): 20.7 µM and > 100 µM and 11.3 µM
GI50 (SNB-19 CNS): 26.7 µM and > 100 µM and 18.3 µM
TGI (SNB-19 CNS): > 100 µM and 47.6 µM
GI50 (NCI-H460 lung): 7.43 µM and 29.4 µM and 3.85 µM
TGI (NCI-H460 lung): 86.1 µM and > 100 µM and 17.7 µM
GI50 (COLO 205 colon): 27.9 µM and 33.7 µM and 6.17 µM
TGI (COLO 205 colon): > 100 µM and 25.6 µM
GI50 (PC-3 prostate): 42.8 µM and 10.9 µM
TGI (PC-3 prostate): 77.5 µM and > 100 µM and 26.5 µM
TGI (HCT-15 colon): > 100 µM and 20.1 µM
TGI (SK-MEL-28 melanoma): > 100 µM and 33.4 µM
GI50 (A549 NSCLC): 14.7 µM and 62.7 µM and 13.8 µM
TGI (A549 NSCLC): 51.2 µM and > 100 µM and 32.1 µM
GI50 (NCI-H23 lung): 3.76 µM and 25 µM and 3.09 µM
TGI (NCI-H23 lung): 24.9 µM and > 100 µM and 13.9 µM
GI50 (CAKI-1 renal): 0.768 µM
TGI (CAKI-1 renal): 3.68 µM and 14.2 µM and 5.52 µM
GI50 (SR leukemia): 2.95 µM and 6.33 µM and 3.1 µM
TGI (SK-MEL-5 melanoma): 21 µM and > 100 µM and 38.7 µM
GI50 (ACHN renal): 2.6 µM
TGI (ACHN renal): 20.3 µM and 3.55 µM and 3.47 µM
GI50 (MOLT-4 leukemia): 3.39 µM and 9.61 µM and 3.56 µM
TGI (MOLT-4 leukemia): 38.6 µM and > 100 µM and > 48.4 µM
TGI (HCC-2998 colon): 87.3 µM and > 100 µM and 16.9 µM
GI50 (HOP-92 NSCLC): 1.83 µM and 6.13 µM and 2.33 µM
GI50 (RPMI-8226 leukemia): 7.56 µM and > 44.4 µM and 14.5 µM
TGI (RPMI-8226 leukemia): > 100 µM
GI50 (NCI-H522 lung): 2.09 µM
TGI (NCI-H522 lung): 4.26 µM
GI50 (DU-145 prostate): 6.16 µM and 14.6 µM and 4.62 µM
TGI (DU-145 prostate): 92.2 µM and > 100 µM and 26.5 µM
GI50 (T-47D breast): 8.73 µM
TGI (T-47D breast): 73.1 µM and > 100 µM and > 77.2 µM
GI50 (SF-539 CNS): 13.7 µM and > 100 µM and 12.4 µM
TGI (SF-539 CNS): 43.7 µM and > 100 µM and 33.1 µM
GI50 (HL-60(TB) leukemia): 3.09 µM
TGI (HL-60(TB) leukemia): 29 µM and > 100 µM
GI50 (HCT-116 colon): 7.37 µM and 40.9 µM and 8.76 µM
TGI (HCT-116 colon): > 100 µM and 32.4 µM
GI50 (A498 renal): 30.9 µM and > 100 µM and 20.2 µM
TGI (A498 renal): 91.8 µM and > 100 µM and 44.1 µM
GI50 (SF-295 CNS): 22.2 µM and 45 µM and 13.4 µM
TGI (SF-295 CNS): 99.5 µM and > 100 µM and 30.8 µM
GI50 (SK-MEL-2 melanoma): 17.3 µM and > 31.3 µM and 13.6 µM
TGI (SK-MEL-2 melanoma): 61.4 µM and > 100 µM and 28 µM
TGI (CCRF-CEM leukemia): 51.5 µM and > 100 µM
GI50 (MDA-N): 29.5 µM and > 100 µM and 11.8 µM
TGI (MDA-N): > 100 µM
GI50 (SNB-75 CNS): 4.55 µM
TGI (SNB-75 CNS): 26.8 µM and > 29.1 µM and 25.5 µM
GI50 (HS 578T breast): 7.33 µM and 29.1 µM and 8.36 µM
TGI (HS 578T breast): 36.2 µM and > 100 µM and > 53.7 µM
GI50 (MCF7 breast): 3.9 µM and 31.3 µM and 7.84 µM
TGI (MCF7 breast): 14.2 µM and > 100 µM and 22.6 µM
TGI (HT29 colon): 20 µM and > 100 µM and 14 µM
TGI (MDA-MB-435): 14.2 µM and > 100 µM and 59.2 µM
GI50 (786-0 renal): 5.31 µM and 11.1 µM and 2.12 µM
GI50 (OVCAR-5 ovarian): 13.4 µM and > 100 µM and 12 µM
TGI (OVCAR-5 ovarian): > 100 µM and 30.2 µM
TGI (SN12C renal): 16.9 µM and > 100 µM and 22 µM
GI50 (BT-549 breast): 4.98 µM and 45.7 µM and 8.82 µM
TGI (BT-549 breast): 46 µM and > 100 µM and 23.9 µM
TGI (SW-620 colon): > 100 µM and 20 µM
GI50 (UO-31 renal): 3.27 µM
TGI (UO-31 renal): 12.5 µM and 6.43 µM
TGI (TK-10 renal): 46.9 µM and > 100 µM and 24.3 µM
GI50 (EKVX NSCLC): 2.37 µM and 11 µM and 3.08 µM
GI50 (OVCAR-3 ovarian): 5.88 µM and 19.2 µM and 6.07 µM
TGI (OVCAR-3 ovarian): 45 µM and > 100 µM and 21.5 µM
TGI (SF-268 CNS): 61.1 µM and > 100 µM and > 61 µM
TGI (UACC-62 melanoma): 55.2 µM and > 100 µM and 25.1 µM
GI50 (NCI-H226 lung): 6.92 µM and 18.9 µM and 6.68 µM
TGI (NCI-H226 lung): 28.9 µM and > 100 µM and 24.9 µM
GI50 (K-562 leukemia): 2.76 µM
TGI (K-562 leukemia): 10.3 µM and > 100 µM
TGI (IGROV1 ovarian): 70.3 µM and > 100 µM and 29.9 µM
